Reference: a melting point compilation (Tetko et al.; mined from patent text by program, amines drawn as free bases though some values may be those of a salt)

First: COC1=NS(=O)(=O)N=C1NCCCCC#CCN(C)C
Second: Cc1nc2cc(C)c(OCC(C)(C)CS(N)(=O)=O)nn2n1
The melting point of the first is lower: 172 to 174 °C for the first, 217 to 218 °C for the second.

First: COc1ccc(S(=O)(=O)c2ccccn2)cc1
Second: COc1ccc(Oc2ccc(S(C)(=O)=O)cc2)cc1
The melting point of the first is lower: 112 °C for the first, 152 to 153 °C for the second.

First: O=[N+]([O-])c1ccc(N2C[C@@H]3C[C@H]2CS3)cc1F
Second: Nc1c(O)cc2c(c1[N+](=O)[O-])CCC2
The melting point of the first is lower: 97 to 98 °C for the first, 196 to 198 °C for the second.

`CCCCn1c(=O)c2c(NC)n[nH]c2n(Cc2ccccc2)c1=O` and `Cc1cc(=O)[nH]n(Cc2ccccc2)c1=O` cannot be ordered by melting point: 282 to 284 °C for the first, > 200 °C for the second.

First: CC(C)(C)c1cc(C(=O)c2ccoc2)cc2c1OCC2(C)C
Second: Cc1c(F)cc(C(=O)O)cc1-c1ccc(C(=O)NCC(C)(C)C)cc1C(=O)Nc1nccs1
The melting point of the first is lower: 120 to 121 °C for the first, 196 to 200 °C for the second.

Compared with `CC(=O)Nc1ccc(Cl)cc1NC(C)=O`, `COC(=O)c1c(Cl)cc(Cl)cc1NC(=O)CSc1ccccc1C` is lower in melting point: 216 °C for the first, 93 to 94 °C for the second.

Compared with `CCCCCCCCOc1ccc(-c2ccc(CCl)cc2)cc1`, `c1ccc2c(OCCCCCCCCOc3cccc4ccccc34)cccc2c1` is lower in melting point: 101 °C for the first, 60 °C for the second.

First: CCOC(=O)c1c(-c2ccccc2)c2c3ccccc3ccn2c1C
Second: Cc1ccc(NC(=O)Nc2cnc3ccc(Cl)cc3c2-c2ccccc2)c(C)c1
The melting point of the first is lower: 119 to 121 °C for the first, 230 to 231 °C for the second.

Compared with `O=C1CCCc2nc3ccccc3c(NCc3ccccc3Cl)c21`, `O=C1CCC(N2Cc3c(CNC(=O)Nc4ccccc4)cccc3C2=O)C(=O)N1` (configuration not stated) is higher in melting point: 150 to 161 °C for the first, 328 to 330 °C for the second.

First: N#CC1C(=O)NC(=O)C(C(=O)O)C12CCCCC2 (configuration not stated)
Second: CC(=O)N1CCC(C(=O)c2ccc(Cl)c(Cl)c2)CC1
The melting point of the first is higher: 210 to 214 °C for the first, 134 to 136 °C for the second.

First: COc1ccccc1C1(c2ccc(N(C)C)cc2)OC(=O)c2cc(N(C)C)ccc21 (configuration not stated)
Second: COc1ccc(-c2cc3n(n2)C(=O)c2ccccc2-3)cc1
The melting point of the first is higher: 215 to 216 °C for the first, 180 to 181 °C for the second.

First: N#Cc1cc(NC(=O)c2ccn(-c3ccc(F)cc3)c2)ccc1N1CCCCC1
Second: COc1ccc(-n2nc(Sc3ccc(F)cc3)c(C)c(C#N)c2=O)cc1
The melting point of the first is higher: 195 to 196 °C for the first, 150 to 152 °C for the second.

First: COC(=O)C(C)Oc1ccc(Oc2ccc3cc(Cl)cc(Cl)c3n2)cc1 (configuration not stated)
Second: COC(=O)c1c(-c2cccs2)c2cc(OCc3ccccc3)ccc2c(=O)n1CC(C)C
The melting point of the first is lower: 70 °C for the first, 143 to 144 °C for the second.

Compared with `COc1ccc2c(c1)sc1c(C(=O)Nc3nnn[nH]3)cnc(=O)n12`, `Cc1ccc2c(c1)c(=O)c1c(cnn1C)n2CC(N)=O` is higher in melting point: 234 to 235 °C for the first, 247 to 252 °C for the second.

First: OC1(CNc2nc3ccccc3s2)CCN(CC2COc3ccccc3O2)CC1 (configuration not stated)
Second: C=C1NC(=O)OC12CCN(Cc1ccccc1)CC2
The melting point of the first is higher: 176 °C for the first, 169 to 170 °C for the second.

First: CCCc1c(OCc2ccccc2C(=O)O)ccc(C(C)=O)c1O
Second: CC(=O)Oc1ccc(C(=O)c2cccc(C(=O)O)c2)cc1
The melting point of the first is higher: 214 to 216 °C for the first, 190 to 193 °C for the second.

Compared with `Cc1ccc(S(=O)(=O)NC(COS(=O)(=O)c2ccc(C)cc2)Cc2ccccc2)cc1` (configuration not stated), `Cc1cccc(CNC(=O)c2ccc3n2Cc2ccccc2N(C(=O)c2ccc(-c4ccccc4C)c(C)c2)C3)c1` is higher in melting point: 95 to 96 °C for the first, 130 to 132 °C for the second.

First: CN(C)C(=O)N(C(=O)Nc1ccccc1)c1ccccc1
Second: O=C(OCc1ccccc1)c1cc(C(=O)OCc2ccccc2)[nH]n1
The melting point of the first is lower: 105 to 107 °C for the first, 120 °C for the second.

`O=C(O)c1nccc(OCc2ccccc2)c1OCc1ccccc1` and `O=C(NCc1ccncc1)c1cc2ccnc(N(Cc3ccccc3)Cc3ccccc3)c2[nH]1` cannot be ordered by melting point: 120 °C for the first, 119 to 120 °C for the second.

Compared with `CCOC(=O)Nc1nc(C)co1`, `CCOc1csc(NC(C)=O)c1C#N` is higher in melting point: 126 °C for the first, 242 to 243 °C for the second.

Compared with `C=CCNC(=S)C(CN1CCOCC1)c1ccccn1` (configuration not stated), `C=CCNc1nc(NCC=C)nc(N2CCN(C(=S)n3ccnc3)CC2)n1` is higher in melting point: 84 to 86 °C for the first, 124 to 127 °C for the second.

Compared with `O=Cc1ccc2c(c1)c1ccccc1n2CCCCCCCCCCn1c2ccccc2c2cc(C=O)ccc21`, `CCCCCCCCCCCCCCCCNc1ccc(C(=O)NS(=O)(=O)c2ccc(N)cc2)cc1` is higher in melting point: 122 °C for the first, 193 to 196 °C for the second.

Compared with `O=[N+]([O-])C=C1CCCN1C1=CC(CF)(CF)Oc2ccc(C(F)(F)C(F)(F)F)cc21`, `CN1CCc2c([nH]c3ccc(NS(=O)(=O)c4ccc(N)cc4)cc23)C1` is higher in melting point: 195 to 197 °C for the first, 236 to 237 °C for the second.

First: Cc1ccc(N)c(C(=O)NCC(C)Cn2ccnc2)c1 (configuration not stated)
Second: Cc1c(C(=O)O)oc2ccc(Cc3cccnc3)cc12
The melting point of the first is lower: 120 to 122 °C for the first, 223 to 225 °C for the second.

First: CSC(=NS(=O)(=O)c1ccccc1)Nc1ccc(C#N)cc1
Second: Nc1nc(-c2ccc(-c3ccccc3)cc2)cn1N
The melting point of the first is lower: 150 °C for the first, > 280 °C for the second.

First: CCOC(=O)C1=CC(=O)C2(C(=O)c3ccccc3)OC2O1 (configuration not stated)
Second: O=C(O)c1cnc(-c2ccccc2OCC2CC2)[nH]c1=O
The melting point of the first is lower: 96 to 98 °C for the first, 219 to 220 °C for the second.

First: NN(CCO)C(=O)Nc1ccc(Cl)cc1
Second: CC(C)(CF)C(=O)C(Br)Oc1ccc(Cl)cc1 (configuration not stated)
The melting point of the first is higher: 141 to 142 °C for the first, 73 to 75 °C for the second.

First: CCOC(=O)Cc1c(C(=O)OCC)c(C)c(C(=O)c2ccc(C)cc2)n1C
Second: CCOC(=O)C1=C(COCC(C)(O)Cn2cncn2)NC(C)=C(C(=O)OC)C1c1cccc(Cl)c1Cl (configuration not stated)
The melting point of the first is lower: 108 to 111 °C for the first, 149 to 160 °C for the second.

First: O=C(NCc1ccc(Cl)cc1)c1cn(N2CCOCC2)c2ccc(CN3CCOCC3)cc2c1=O
Second: O=C1c2ccccc2CN1CCN1CCC(c2noc3cc(F)ccc23)CC1
The melting point of the first is higher: 195 to 196 °C for the first, 166 to 168 °C for the second.

First: CC(C)CC1(CC(=O)NO)CC(=O)N(CCc2ccccc2)C1=O (configuration not stated)
Second: CC1(C)CC(N(C=O)CCc2ccccc2)CC(C)(C)N1
The melting point of the first is higher: 136 to 137 °C for the first, 86 °C for the second.

Compared with `NC[C@@H]1CN(c2nc3c(cc2F)c(=O)c(C(=O)O)cn3C2CC2)C[C@@H]1Cl` (relative stereo), `COc1cc2c(=O)n3nc(C(=O)O)cc3n(C)c2cc1OC` is higher in melting point: 174 to 177 °C for the first, 284 to 285 °C for the second.

First: COc1cc(Nc2c(C#N)cnc3cc(C#CCN4CCN(C)CC4)sc23)c(Cl)cc1Cl
Second: COc1ccc2c3c1c(C)c(-c1ccc(O)cc1)n3CC(CCN1CCN(c3cc(C)ccn3)CC1)O2 (configuration not stated)
The melting point of the first is lower: 172 to 173 °C for the first, 193 to 195 °C for the second.

First: CCOC(=O)c1ccc(-c2ccc(-c3ccccc3)c(-c3cc4c(cc3O)C(C)(C)CCC4(C)C)c2)cc1
Second: CC(C)=C1C(=O)N(c2ccc(Cc3ccc(N)cc3)cc2)C(=O)/C1=C(\C)c1cc(-c2ccccc2)sc1C
The melting point of the first is higher: 145 °C for the first, 82 to 94 °C for the second.

Going from `BrCc1ccc2nc(-c3ccccc3)oc2c1` to `O=c1ccc(-c2c(-c3ccccc3)nn3ccncc23)c[nH]1`, the melting point rises from 162 °C to > 250 °C.

First: CC(C)Cn1c(=O)n(C)c(=O)c2c(SC(C)C)c(Cn3cnc4ccccc43)sc21
Second: Cc1nn(-c2ccccc2)c(=O)c2c1c1c(Br)cccc1n2C
The melting point of the first is higher: 195 °C for the first, 189 to 190 °C for the second.

Compared with `N#Cc1c(-c2ccc(Cl)cc2)[nH]c(Br)c1Cl`, `CC12CCc3cc(C#N)ccc3C1=NNC(=O)C2` (configuration not stated) is higher in melting point: 262 to 263 °C for the first, > 300 °C for the second.

Compared with `C=C(C(=O)OC)C(=O)c1ccc(OC)cc1`, `COc1ccc(O)cn1` is higher in melting point: 75 to 76 °C for the first, 80 to 82 °C for the second.

Compared with `CCn1c(=O)c2[nH]c(C(C)C)nc2n(Cc2ccc(OC)c(OC)c2)c1=O`, `COc1ccc2c3c(c(=O)oc2c1OC)CN(CC(C)=O)CC3` is lower in melting point: 198 to 201 °C for the first, 145 to 147 °C for the second.

First: CC(=O)c1cc2c(s1)CCc1cc(=O)n(-c3ccc(C)cc3)nc1-2
Second: O=C1CCC(c2cccc(O)c2)N1Cc1ccncc1 (configuration not stated)
The melting point of the first is higher: 240 to 242 °C for the first, 148 to 150 °C for the second.

First: CCN(C(=O)n1nc2c(Cl)c(Cl)c(Cl)c(Cl)c2n1)c1ccccc1
Second: CN(C)C(=O)N1CCC(Oc2c(F)c(F)c(F)c(F)c2F)(c2ccccc2)CC1
The melting point of the first is higher: 157 °C for the first, 92 to 96 °C for the second.

`CC(C)(C)c1cc(OCCCCCCc2nnn[nH]2)cc(C(C)(C)C)c1O` and `O=c1cc(-c2ccccc2)oc2cc(OCCCCCCN3CCC(O)CC3)ccc12` cannot be ordered by melting point: 128 to 131 °C for the first, 130 to 131 °C for the second.

First: COc1ccc(-c2ccncc2)cc1Br
Second: CNc1nc(-c2cccc(NC(=O)Cc3ccccc3)c2)c2cc(OC)c(OC)cc2n1
The melting point of the first is lower: 82 to 84 °C for the first, 175 to 177 °C for the second.

Compared with `Cc1oc2ccccc2c1C(=O)NCc1ccc2c(Br)c(OCc3nnn[nH]3)ccc2c1`, `Cc1ncc(CNC(=O)c2ccc3n2Cc2ccccc2N(C(=O)CSc2ccc(Br)cc2)C3)c(CO)c1O` is lower in melting point: 242 to 244 °C for the first, 199 to 200 °C for the second.

First: CCN(C=Nc1ccncc1O)CC
Second: Cc1ccc2[nH]ncc2c1NCCN
The melting point of the first is lower: 104 to 106 °C for the first, 153 to 155 °C for the second.

First: Cc1noc(CC(=O)N(N)C(=O)c2ccco2)n1
Second: O=C(O)Cc1cccc2nnsc12
The melting point of the first is higher: 169 to 171 °C for the first, 148 to 150 °C for the second.

First: CCN(C)CCc1[nH]c2ccccc2c1CSc1ccccc1
Second: C=C1CSC2C(NC(=O)OC(C)(C)C)C(=O)N2C1C(=O)OC(c1ccccc1)c1ccccc1 (configuration not stated)
The melting point of the first is lower: 77 to 79 °C for the first, 135 to 137 °C for the second.

First: CCCN1CCC23c4cccc(O)c4OC2C2CCC3(C1)C(COC)C2 (configuration not stated)
Second: O=C(Nc1cccc(-c2ccnc3c(C(=O)c4cccs4)cnn23)c1)NC1CCCCC1
The melting point of the first is lower: 130 to 131 °C for the first, 233 to 236 °C for the second.

Compared with `COc1ncc(Cc2nnc(Nc3ccc(C(C)(C)C)cc3)c3ccccc23)cc1-c1ccco1`, `CCCCn1c(=O)c2nn(S(=O)(=O)c3ccc(C(C)(C)C)cc3)cc2n(CCCC)c1=O` is lower in melting point: 180 to 182 °C for the first, 158 to 159 °C for the second.

Compared with `COC(=O)c1ccc(NN=CC(=O)OCCC#N)cc1S(N)(=O)=O`, `CC(C)[C@H](NC(=O)OCc1ccccn1)C(=O)N[C@@H](Cc1ccccc1)C[C@H](O)[C@H](Cc1ccccc1)NC(=O)OCc1cncs1` is lower in melting point: 188 to 189 °C for the first, 166 to 168 °C for the second.

First: Cc1nc(N(C)C=O)sc1C(=O)CBr
Second: Cc1cccc(Cl)c1C=NS
The melting point of the first is lower: 80 to 82 °C for the first, 143 °C for the second.

First: CC(C)C1(C)NC(c2ccccc2C(F)(F)F)=NC1=O (configuration not stated)
Second: CC(=O)N1CCC(NC(=O)NC23CC4CC(CC(C4)C2)C3)CC1
The melting point of the first is lower: 109 to 110 °C for the first, 202 to 204 °C for the second.
